Data published in patent EP2931723B1, “NEW BICYCLIC COMPOUNDS AND THEIR USE AS ANTIBACTERIAL AGENTS AND -LACTAMASE INHIBITORS” (Fedora Pharmaceuticals Inc., priority 2012, dated 2014).

Experiments:
Assay in all cases: MIC, antibacterial and synergistic activity
Format in all cases: cell-based
[1] = system: E. coli JMI 2665
Method: (§1) In the Tables 10 - 12, compounds herein disclosed were tested in combination with various antibiotics against metallo β-lactamase producing bacteria. Table 3: Synergy of the inhibitor Ex. 1 (4 µg/mL) in combination with antibiotics

[2] = system: K. pneumo JMI 4088; settings: K. pneumo JMI 4088 (KPC-3 (Cpase))
Outline: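 Minimum inhibitory concentrations were measured for antibiotics given together with the test inhibitor, held at 4 µg/mL, against bacteria that produce β-lactamase. The purpose was to see whether the inhibitor restores or boosts antibacterial activity, that is, synergy with the antibiotic.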

[3] = system: E. coli JMI 2671
Outline: (§2)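 Read-out is the MIC of each antibiotic with 4 µg/mL inhibitor present, in metallo β-lactamase-producing strains.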

[4] = system: K. pneumo JMI 2674; settings: K. pneumo JMI 2674 (CTX-M15 (ESBL))
Outline: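 Antibacterial activity was assessed as minimum inhibitory concentrations against a β-lactamase-producing bacterial strain. Each test inhibitor was combined with an antibiotic, with the inhibitor held at a fixed 4 µg/mL, to determine whether it acted synergistically and restored the antibiotic's effect against the resistant organism.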

[5] = system: E. coli JMI 10767; settings: E. coli JMI 10767 (Wt)
Method: as §1

[6] = system: E. coli JMI 10768; settings: E. coli JMI 10768 (CTX-M15 (Weak ESBL))
Method: as §1

[7] = system: K. pneumo JMI 2699; settings: K. pneumo JMI 2699 (VIM-1, CTX-M3)
Outline: as §2

[8] = system: P. aerug JMI 2686; settings: P. aerug JMI 2686 (KPC-2 (Cpase))
Outline: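 This antibacterial synergy assay measured the minimum inhibitory concentration of antibiotics combined with the disclosed inhibitor compounds. The inhibitor was held at 4 µg/mL throughout. The aim was to see whether the added compound strengthened the antibiotic's action against the tested bacteria.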

[9] = system: K.pneumo JMI 4109; settings: K.pneumo JMI 4109 (SHV-1, SHV-12)
Outline: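 Antibacterial synergy was assessed by pairing each inhibitor compound, at a constant concentration of 4 µg/mL, with β-lactam antibiotics. The combinations were run against bacterial strains that produce β-lactamases, and the readout was the minimum inhibitory concentration of the antibiotic in the presence of the inhibitor.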

[10] = system: E. coli JMI 10770; settings: E. coli JMI 10770 (CTX-M15 (Hyper ESBL))
Method: as §1

[11] = system: K. pneumo JMI 2673; settings: K. pneumo JMI 2673 (CTX-M14 (ESBL))
Outline: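 Compounds were evaluated together with various antibiotics to measure synergistic antibacterial activity. For each combination, the minimum inhibitory concentration of the antibiotic was recorded while the inhibitor was present at a constant 4 µg/mL.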

[12] = system: P. aerug JMI 149; settings: P. aerug JMI 149 (Bla+++D+)
[13] = system: E. coli JMI 4080
[14] = system: E. coli JMI 10767; settings: E. coli JMI 10767 (Wt); remark: listed apart in the source
[15] = system: K.pneumo JMI 4109; settings: K.pneumo JMI 4109 (SHV-1, SHV-12); substance alone
[16] = system: E.coli JMI 4103; settings: E.coli JMI 4103 (KPC-2, Tem-1, CMY-Type)
[17] = system: K. pneumo JMI 2673; settings: K. pneumo JMI 2673 (CTX-M14 (ESBL)); substance alone
[18] = system: K. pneumo JMI 4088; settings: K. pneumo JMI 4088 (KPC-3 (Cpase)); substance alone
[19] = system: A. baumanii JMI 2659; settings: A. baumanii JMI 2659 (Ges-14 (Cpase))
[20] = system: E. coli JMI 2692; settings: E. coli JMI 2692 (NDM-1, TEM-1, CTX-M-15)
Method: (§3) In the Tables 10 - 12, compounds herein disclosed were tested in combination with various antibiotics against metallo β-lactamase producing bacteria.

[21] = system: K. pneumo JMI 2693; settings: K. pneumo JMI 2693 (NDM-1 (Cpase))
Method: as §3

[22] = system: K. pneumo JMI 2697; settings: K. pneumo JMI 2697 (IMP-4 (Cpase))
Method: as §3

[23] = Aztreonam + inhibitor at 4 µg/mL
[24] = Ceftazidime + inhibitor at 4 µg/mL
[25] = Meropenem + inhibitor at 4 µg/mL

## NCCONC(=O)[C@@H]1CC[C@@H]2CN1C(=O)N2OS(=O)(=O)O [Ex. 3, (2S,5R)-N-(2-Aminoethoxy)-7-oxo-6-(sulfooxy)-1,6-diazabicyclo[3.2.1]octane-2-carboxamide]
[1]; E. coli JMI 2665 (CMY-2 (Plasmid Cpase)), Aztreonam + inhibitor at 4 µg/mL
  MIC Aztreonam + inhibitor: ≤0.062 µg/mL
[1]; E. coli JMI 2665 (CMY-2 (Plasmid Cpase)), Ceftazidime + inhibitor at 4 µg/mL
  MIC Ceftazidime + inhibitor: ≤0.25 µg/mL
[1]; Escherichia coli, JMI2665
  MIC: 2 µg/mL
[2]; [23]
  MIC Aztreonam + inhibitor: 1 µg/mL
[2]; [24]
  MIC Ceftazidime + inhibitor: ≤0.25 µg/mL
[2]; [25]
  MIC Meropenem + inhibitor: 0.25 µg/mL
[3]; E. coli JMI 2671 (VIM-19 (Cpase)), Aztreonam + inhibitor at 4 µg/mL
  MIC Aztreonam + inhibitor: ≤0.062 µg/mL
[3]; E. coli JMI 2671 (VIM-19 (Cpase)), Ceftazidime + inhibitor at 4 µg/mL
  MIC Ceftazidime + inhibitor: ≤0.25 µg/mL
[3]; E. coli JMI 2671 (VIM-19 (Cpase)), Meropenem + inhibitor at 4 µg/mL
  MIC Meropenem + inhibitor: ≤0.0312 µg/mL
[3]; Escherichia coli, JMI2671, E. coli JMI 2671 (VIM-19 (Cpase)), substance alone
  MIC: 2 µg/mL
[4]; [23]
  MIC Aztreonam + inhibitor: 0.5 µg/mL
[4]; [24]
  MIC Ceftazidime + inhibitor: ≤0.25 µg/mL
[4]; [25]
  MIC Meropenem + inhibitor: 0.125 µg/mL
[5]; [23]
  MIC Aztreonam + inhibitor: ≤0.062 µg/mL
[5]; [24]
  MIC Ceftazidime + inhibitor: ≤0.25 µg/mL
[6]; [23]
  MIC Aztreonam + inhibitor: ≤0.062 µg/mL
[6]; [24]
  MIC Ceftazidime + inhibitor: ≤0.25 µg/mL
[6]; Escherichia coli, JMI10768, substance alone
  MIC: 4 µg/mL
[7]; [23]
  MIC Aztreonam + inhibitor: ≤0.062 µg/mL
[7]; [24]
  MIC Ceftazidime + inhibitor: ≤0.25 µg/mL
[7]; [25]
  MIC Meropenem + inhibitor: ≤0.0312 µg/mL
[7]; substance alone, read-out: MIC
  MIC: 4 µg/mL
[8]; [23]
  MIC Aztreonam + inhibitor: >4 µg/mL
[8]; [24]
  MIC Ceftazidime + inhibitor: 16 µg/mL
[8]; [25]
  MIC Meropenem + inhibitor: >2 µg/mL
[9]; [23]
  MIC Aztreonam + inhibitor: ≤0.062 µg/mL
[9]; [24]
  MIC Ceftazidime + inhibitor: ≤0.25 µg/mL
[9]; [25]
  MIC Meropenem + inhibitor: ≤0.0312 µg/mL
[10]; [23]
  MIC Aztreonam + inhibitor: 8 µg/mL
[10]; [24]
  MIC Ceftazidime + inhibitor: 2 µg/mL
[10]; [25]
  MIC Meropenem + inhibitor: 0.062 µg/mL
[11]; [23]
  MIC Aztreonam + inhibitor: 0.125 µg/mL
[11]; [24]
  MIC Ceftazidime + inhibitor: ≤0.25 µg/mL
[11]; [25]
  MIC Meropenem + inhibitor: ≤0.0312 µg/mL
[12]; [23]
  MIC Aztreonam + inhibitor: >4 µg/mL
[12]; [24]
  MIC Ceftazidime + inhibitor: 4 µg/mL
[12]; [25]
  MIC Meropenem + inhibitor: 0.25 µg/mL
[12]; substance alone, read-out: MIC
  MIC: > 16 µg/mL
[13]; E. coli JMI 4080 (Tem-10), Aztreonam + inhibitor at 4 µg/mL
  MIC Aztreonam + inhibitor: ≤0.062 µg/mL
[13]; E. coli JMI 4080 (Tem-10), Ceftazidime + inhibitor at 4 µg/mL
  MIC Ceftazidime + inhibitor: ≤0.25 µg/mL
[13]; E. coli JMI 4080 (Tem-10), Meropenem + inhibitor at 4 µg/mL
  MIC Meropenem + inhibitor: ≤0.0312 µg/mL
[13]; Escherichia coli, JMI4080, E. coli JMI 4080 (Tem-10), substance alone
  MIC: 2 µg/mL
[14]; [25]
  MIC Meropenem + inhibitor: ≤0.0312 µg/mL
[14]; Escherichia coli, JMI10767, substance alone
  MIC: 2 µg/mL
[15]
  MIC: 2 µg/mL
[16]; [23]
  MIC Aztreonam + inhibitor: ≤0.062 µg/mL
[16]; [24]
  MIC Ceftazidime + inhibitor: ≤0.25 µg/mL
[16]; [25]
  MIC Meropenem + inhibitor: ≤0.0312 µg/mL
[16]; Escherichia coli, JMI4103, substance alone
  MIC: 4 µg/mL
[17]
  MIC: > 16 µg/mL
[18]
  MIC: 2 µg/mL
[19]; [23]
  MIC Aztreonam + inhibitor: >4 µg/mL
[19]; [24]
  MIC Ceftazidime + inhibitor: >16 µg/mL
[19]; [25]
  MIC Meropenem + inhibitor: 2 µg/mL
[19]; Acinetobacter baumannii, JMI2659, substance alone, read-out: MIC
  MIC: > 16 µg/mL
[20]; [23]
  MIC Aztreonam + inhibitor: ≤0.062 µg/mL
[20]; [24]
  MIC Ceftazidime + inhibitor: ≤0.25 µg/mL
[20]; [25]
  MIC Meropenem + inhibitor: ≤0.0312 µg/mL
[20]; Escherichia coli, JMI2692, substance alone, read-out: MIC
  MIC: 2 µg/mL
[21]; [23]
  MIC Aztreonam + inhibitor: 0.25 µg/mL
[21]; [24]
  MIC Ceftazidime + inhibitor: ≤0.25 µg/mL
[21]; [25]
  MIC Meropenem + inhibitor: ≤0.0312 µg/mL
[21]; substance alone
  MIC: 8 µg/mL
[22]; [23]
  MIC Aztreonam + inhibitor: 0.25 µg/mL
[22]; [24]
  MIC Ceftazidime + inhibitor: 0.5 µg/mL
[22]; [25]
  MIC Meropenem + inhibitor: 0.25 µg/mL
[22]; substance alone
  MIC: 8 µg/mL
